Test results published in patent publication US20240000950A1, “THERAPEUTIC CURE-PRO COMPOUNDS FOR TARGETED DEGRADATION OF BET DOMAIN PROTEINS, AND METHODS OF MAKING AND USING THEM” (CORNELL UNIVERSITY, priority 2020, published 2024).
“Also recorded” adds a separate entry of the source.

How the values were obtained:
Format in all cases: cell-based
[1] = system: caspase 3/7 activity in Namalwa cells; assay: Caspase-Glo 3/7 assay, Namalwa cells; conditions: 24 h, co-treated with VHL ligand VHL298
Method: All cell lines were purchased from ATCC or DSMZ and grown at 37° C. with 5% C02. […]
(§1) Caspase-glo® assay (Promega) was conducted following the manufacturer's recommendations. […] After a 24 h incubation, 100 μl of the […] substrate was added per well and luminescence was read on a Spectramax M5 (Molecular Devices).
Namalwa cells (5×104) were treated for 24 hours with the compounds solubilized in DMSO. FIG. 57 is a bar graph depiction of fold increase of apoptosis assessed via caspase 3/7 activity using the Caspase-Glo assay (Promega) described above.
(§2) Molm-13 (FIG. 76A) or Namalwa (FIG. 76B) cells (5×104) were treated for 24 hours with the compounds solubilized in DMSO in white 96 well plates (10 nM-10 μM solubilized in DMSO). FIG. 76 is a bar graph depiction of fold increase of apoptosis assessed via caspase 3/7 activity using the Caspase-Glo assay (Promega) described above.

[2] = system: caspase 3/7 activity in MOLM13 cells; assay: Caspase-Glo 3/7 assay, Molm-13 cells; conditions: 24 h, co-treated with VHL ligand VHL298
Method: (§3) All cell lines were purchased from ATCC or DSMZ and grown at 37° C. with 5% C02. Human HeLa cells were cultured in complete growth medium (Dulbecco's modified Eagle's medium (DMEM) supplemented with 10% FBS); MCF7 cells were cultured in complete growth medium (Dulbecco's modified Eagle's medium (DMEM) supplemented with 10% FBS and 0.01 mg/ml human recombinant insulin (Sigma Aldrich); Namalwa and MOLM-13 cells were cultured in complete growth medium (RPMI 1640 medium supplemented with 10% FBS); MV-4-11 were cultured in complete growth medium (Iscove's Modified Dulbecco's medium, supplemented with 10% FBS); HCT116 cells were cultured in complete growth medium (McCoy's 5a Medium supplemented with 10% FBS). […]
as §1, §2

[3] = system: Molm-13 cells; assay: CellTiter-Glo cell viability, Molm-13 cells
Method: as §3
(§4) CellTiter-Glo® 2.0 Cell Viability Assay (Promega) was carried out following the manufacturer's recommendations. […] After a 72 h incubation, 100 ul of the CellTiter-Glo® substrate was added per well and luminescence was read on a Spectramax M5 (Molecular Devices). […]
Molm-13 cells (1×104) were treated for 24 (FIG. 77A) or 72 (FIG. 77B) hours were treated in white 96 well plates with the compounds (10 nM-10 μM solubilized in DMSO). After indicated times cell viability was assessed using the CellTiter-Glo® Luminescent Cell Viability Assay (Promega) and the signal detected on a SpectraMax M5 (Molecular Devices).

[4] = molecular target: T1, BRD4 (Homo sapiens, UniProt O60885); assay: CURE-PRO-mediated BRD4 degradation in MCF7 cells with VHL ligands, WES (ProteinSimple); parameters: endogenous in cells; host or cells: HeLa, MCF7 or HCT116
Method: as §3, with “FBS). For cellular degradation of BRD4 studies, cells were seeded in a 12-well plate at 70-80% confluency, allowed to attach overnight, and incubated with the indicated compounds for the indicated time.” for “FBS).”
WES Simple analysis was performed on WES system (ProteinSimple-Biotechne) according to the manufacturer's instructions. Total protein concentrations of cell lysates were determined by the Pierce BCA kit (Thermo Fisher). […]
MCF7 cells (3×10^6) were treated for 4-24 hours continually (FIG. 72), or treated for 4 h, washed and incubated for a further 4-24 h with the compounds solubilized in DMSO. […] The total protein concentration was quantified by the BCA method (ThermoFisher Sciences). […]

[5] = molecular target: T1, BRD4; assay: Summary of E3 ligase directed degradation of BRD4, estimated from Western Blot or WES (Tables 1-6); parameters: endogenous in cells; host or cells: HeLa, MCF7 or HCT116
Summary of the method: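 HeLa, MCF7 or HCT116 cells treated 24 h with compounds in DMSO, lysed in RIPA buffer; BRD4 levels read by Western blot (ECL detection) or capillary WES with HRP detection. Check mark denotes 30% to 70% or higher protein degradation.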

[6] = system: Namalwa cells; assay: CellTiter-Glo cell viability, Namalwa cells; conditions: 72 h, 10 nM-10 μM, co-dosed 1:1 with CRBN ligand 8047, compared to monomer alone
Method: as §3, with “FBS). For cellular degradation of BRD4 studies, cells were seeded in a 12-well plate at 70-80% confluency, allowed to attach overnight, and incubated with the indicated compounds for the indicated time.” for “FBS).”
as §4
Namalwa cells (1×104) were treated for 72 hours with the compounds solubilized in DMSO. […] Cellular viability was determined using the CellTiter-Glo® Luminescent Cell Viability Assay (Promega) described above. […]

[7] = molecular target: T1, BRD4; assay: CURE-PRO-mediated BRD4 degradation in HeLa cells, Western blot; parameters: endogenous in cells; host or cells: HeLa; conditions: 24 h
Method: (§5) All cell lines were purchased from ATCC or DSMZ and grown at 37° C. with 5% C02. Human HeLa cells were cultured in complete growth medium (Dulbecco's modified Eagle's medium (DMEM) supplemented with 10% FBS); MCF7 cells were cultured in complete growth medium (Dulbecco's modified Eagle's medium (DMEM) supplemented with 10% FBS and 0.01 mg/ml human recombinant insulin (Sigma Aldrich); Namalwa and MOLM-13 cells were cultured in complete growth medium (RPMI 1640 medium supplemented with 10% FBS); MV-4-11 were cultured in complete growth medium (Iscove's Modified Dulbecco's medium, supplemented with 10% FBS); HCT116 cells were cultured in complete growth medium (McCoy's 5a Medium supplemented with 10% FBS). For cellular degradation of BRD4 studies, cells were seeded in a 12-well plate at 70-80% confluency, allowed to attach overnight, and incubated with the indicated compounds for the indicated time. When indicated, a 15-minute pretreatment with 10 μM pomalidomide, 10 μM VHL298, 10 μM Nutlin3a, 1 μM MG-132 or 1 μM Carfilzomib was performed before the addition of CURE-PROs. For washout studies, after CURE-PRO treatment, media was aspirated and incubated with complete medium for the indicated time before lysis.
(§6) Anti-BRD4 (13440, 1:1,000 dilution for Western Blot and 1:25 dilution for ProteinSimple); Anti-BRD2 (5848 1:1,000 dilution for Western Blot and 1:25 dilution for ProteinSimple); β-Actin (3700, 1:2,000 dilution for Western Blot), β-Actin (4970, 1:50 dilution for ProteinSimple) anti-mouse IgG-HRP, and anti-rabbit IgG-HRP antibodies were purchased Cell Signaling Technology. Anti-GAPDH (600-401-A33, 1:100 dilution for ProteinSimple) was purchased from Rockland Immunochemicals, Inc. Anti-BRD3 (sc-81202, 1:200 dilution for Western Blot) was purchased from Santa Cruz Biotechnology.
HeLa, MCF7, or HCT116 cells (2.5-3×10^6) were treated for 24 hours with the indicated compounds solubilized in DMSO. The cells were washed in ice-cold PBS and were then lysed in RIPA lysis buffer (150 mM NaCl, 5 mM EDTA, 1% NP-40, 0.5% sodium deoxycholate, 0.1% SDS, 50 mM Tris, pH 8.0) with Roche protease inhibitor complete cocktail and phosphatase inhibitors (10 mM sodium fluoride, 10 mM sodium pyrophosphate, 1 mM sodium orthovanadate and 20 mM β-glycerophosphate). The total protein concentrations were determined by Bradford Protein Assay and 10-20 μg of protein was loaded onto 4-15% Tris-Glycine gradient gels (Biorad). After standard gel electrophoresis, the separated proteins were transferred to PVDF membrane by wet transfer. The immunoblots were then blocked for 1 hour in 5% skim milk in TBST or 5% BSA in TBST, according to manufacturer's instructions, before an overnight incubation at 4° C. with indicated antibodies and membranes. Membranes were then incubated with the appropriate horseradish peroxidase-conjugated secondary antibodies (1:5,000 dilution) for 1 h at room temperature and the bands were visualized using the Clarity Max Western ECL Substrate (Biorad) and the ChemiDoc Imaging System (Biorad). Signal was detected with ECL Western Blotting Substrate (Pierce) and X-ray film processed with a Konica SRX-101 X-ray film processor or captured by Bio-Rad's Chemidoc Imaging system.
HeLa cells (2.5×10^6) were treated for 24 hours with the sample compounds solubilized in DMSO. Compounds were added at 1-10 μM each. Standardized protein samples were electrophoresed and imaged as described in the immunoblotting description above. FIGS. 6-18 depicts the CURE-PRO-mediated BRD4 degradation for BRD monomers (JQ1 derivatives comprising of catechol linkers), and CRBN ligands, 8048 and 8049 (pomalidomide derivatives comprising boronic acid linkers) combined in a 1:1 ratio.
HeLa cells (2.5×10^6) were treated for 24 hours with the compounds solubilized in DMSO. The compounds were added at 10 μM each. Standardized protein samples were electrophoresed and imaged as described in the immunoblotting section above. […]

[8] = molecular target: T1, BRD4; assay: CURE-PRO-mediated BRD4 degradation in HeLa cells, WES capillary electrophoresis (ProteinSimple); parameters: endogenous in cells; host or cells: HeLa; conditions: 4-24 h, 10 μM each, co-dosed with CRBN ligand 8047, washed after 4 h
Method: as §5, §6
WES Simple analysis was performed on WES system (ProteinSimple-Biotechne) according to the manufacturer's instructions. Total protein concentrations of cell lysates were determined by the Pierce BCA kit (Thermo Fisher). 3 μL of 0.3 μg/uL of the protein lysate was loaded onto a 12- to 230-kDa WES assay plate (ProteinSimple) where 300 nL sample was withdrawn through a capillary, subjected to electrophoretic separation of proteins by size, and followed by the simultaneous, HRP-based detection of proteins using the Anti-Rabbit Detection Module (Proteinsimple: #DM-001). The electropherograms were checked then the automatic peak detection was manually corrected if it was required.
HeLa cells (2.5×10^6) were treated for 4-24 hours with the compounds solubilized in DMSO. After 4 hours, indicated points were washed and cells were left in full growth media. Compounds were added at 10 μM each. […]

Structure (SMILES) | caspase 3/7 activity [1] | caspase 3/7 activity [2] | loss of cell viability (CellTiter-Glo) ([3]; 24 h and 72 h, 10 nM-10 μM, co-dosed 1:1 with VHL ligand 8305) | cell viability (CellTiter-Glo) ([3]; co-treated with VHL ligand VHL298) | BRD4 degradation after pre-incubation with VHL298 ([4]; 10 μM each with VHL ligand 8305, VHL298 preincubated at equimolar concentration) | BRD4 degradation ([4]; 10 μM each, 1:1 with VHL ligand 8305, 4-24 h, with washout where stated) | Degradation of BRD4, combination with VHL ligand [drawing 442] ([5]; Table 3, aromatic 1,2-diol-containing VHL ligand drawn as drawing 442 (by the text apparently 8305)) | loss of cell viability (CellTiter-Glo) [6] | BRD4 degradation with pomalidomide and the BRD ligand (no 8047) ([7]; 10 μM) | BRD4 degradation after preincubation with pomalidomide ([7]; 10 μM, 1:1 with CRBN ligand 8047, pomalidomide preincubated 15 min at equimolar concentration) | BRD4 degradation ([7]; BRD ligand (monomer) alone) | BRD4 degradation, time dependence and washout [8] | Degradation of BRD4, combination with CRBN ligand [drawing 421] ([5]; Table 1, CRBN ligand drawn as drawing 421 (by the text apparently 8047))
CCNC(=O)C[C@@H]1N=C(c2ccc(Cl)cc2)c2cc(B(O)O)ccc2-n2c(C)nnc21 [BRD-E50, ((4S)-6-(4-chlorophenyl)-4-(2-(ethylamino)-2-oxoethyl)-1-methyl-4H-benzo[f][1,2,4]triazolo[4,3-a] [1,4]diazepin-8-yl)boronic acid] | does not increase caspase activity | does not increase caspase activity | marked loss in cell viability; also recorded: a greater loss of cell viability | decreases levels of cell viability to similar levels of BRD-E50 treatment alone | attenuates CURE-PRO mediated BRD4 degradation; also recorded: No degradation is noted; also recorded: inhibited CURE-PRO mediated degradation; also recorded: inhibits the degradation of BRD4 | directs degradation of BRD4 as early as 4 h, with sustained degradation 24 h after wash out; also recorded: marked BRD4 degradation after 4 h with sustained degradation for up to 8 h after drugs are washed out | ✓ (A black check mark indicates efficacy of 30% to 70% or higher protein degradation) | – | – | – | – | – | –
CCNC(=O)C[C@@H]1N=C(c2ccc(Cl)cc2)c2cc(-c3cccc(B(O)O)c3)ccc2-n2c(C)nnc21 [BRD-E72, (3-((4S)-6-(4-chlorophenyl)-4-(2-(ethylamino)-2-oxoethyl)-1-methyl-4H-benzo[f][1,2,4]triazolo[4,3-a][1,4]diazepin-8-yl)phenyl)boronic acid] | – | – | – | – | – | – | – | the dose-response curves shifted towards the left; also recorded: marked loss in cell viability | failed to induce BRD4 degradation | inhibition of CURE-PRO-mediated BRD4 degradation | no change in expression is observed | marked BRD4 degradation after 4 h with sustained degradation for up to 8 h after drugs are washed out | ✓ (A black check mark indicates efficacy of 30% to 70% or higher protein degradation)
